molecular target: T1, human OX2 receptor (Homo sapiens, UniProt O43614); assay: [3H]-radioligand binding assay, OX2; parameters: made in house; host or cells: SF21 insect cells (baculovirus; P0 virus made in SF9); conditions: [3H]-radioligand binding, human OX2 membranes; read-out: pKi average OX2 (converted)
T1 sequence (O43614 1-444): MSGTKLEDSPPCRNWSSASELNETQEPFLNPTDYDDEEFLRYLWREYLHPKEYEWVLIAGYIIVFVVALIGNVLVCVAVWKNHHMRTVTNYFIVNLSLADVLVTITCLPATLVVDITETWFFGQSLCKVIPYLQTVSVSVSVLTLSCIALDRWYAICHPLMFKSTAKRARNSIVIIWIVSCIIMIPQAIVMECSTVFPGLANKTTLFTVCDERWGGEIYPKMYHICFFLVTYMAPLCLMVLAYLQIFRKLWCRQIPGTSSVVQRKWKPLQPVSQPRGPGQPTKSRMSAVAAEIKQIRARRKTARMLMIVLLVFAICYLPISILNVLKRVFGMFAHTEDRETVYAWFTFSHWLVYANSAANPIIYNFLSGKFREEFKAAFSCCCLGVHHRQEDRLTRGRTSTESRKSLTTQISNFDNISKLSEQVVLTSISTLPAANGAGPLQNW
From the text: Cloning, Baculovirus generation, large-scale infection of SF21 cells and membrane preparation. Human OX1 or OX2 receptor were cloned into Invitrogen's (ThermoFisher Scientific, UK) Bac-to-Bac Baculovirus Expression System. P0 baculovirus was generated by transfecting SF9 cells with bacmid DNA using Cellfectin® II transfection reagent (ThermoFisher Scientific, UK, Catalog number 10362-100). Following P0 generation P1 virus was then generated ready for large scale infection and membrane preparation. SF21 cells were grown in expression medium ESF921 (Expression Systems, USA, catalog number 96-001-01) supplemented with 10% heat-inactivated FBS and 1% Pen/Strep and were infected at a cell density of 2.5×10^6 cells/mL and a multiplicity of infection of 1.0 for both human OX1R and OX2R. Incubation was carried out at over 48 h in a shaking incubator set at 27° C. The cell culture was then centrifuged at 2,500 rcf for 10 min at 4° C. The pellets were resuspended in cold PBS supplemented with Roche's Complete EDTA-free protease inhibitor cocktail tablets (Roche Applied Sciences, catalog number 05056489001), 1 mM PMSF and 1 mM EDTA. The resuspended cell paste was then centrifuged at 3,273 rcf for 12 min at 4° C. The supernatant was discarded and the pellet frozen at −80° C. The cell pellet from a 4 L culture was resuspended in buffer containing 50 mM HEPES pH 7.5, 150 mM NaCl, 8 Roche EDTA-Free protease inhibitor cocktail tablets and 1 mM PMSF. The suspension was left stirring at rt for 1 h and then homogenised for 90 s at 9,500 rpm using a VDI 25 (VWR, USA) homogeniser. The cells were then lysed using a Microfluidiser processor M-110L Pneumatic (Microfluidics, USA) at 60 PSI and membranes collected by ultracentrifugation at 204.7 k×g for 1 h. The supernatant was discarded and the pellet was resuspended and homogenised in 90 s at 9,500 rpm in 50 mL (25 mL for each 2 L culture) of buffer containing 50 mM Hepes pH 7.5, 150 mM NaCl, 3 Roche EDTA-free protease inhibitor cocktail tablets and 1 mM PMSF. The resulting membranes were then stored at −80° C.
[^3H]-radioligand binding assay. After thawing, membrane homogenates were resuspended in the binding buffer (8.5 mM HEPES, pH 7.4, 1.3 mM CaCl2, 1.2 mM MgSO4, 118 mM NaCl, 4.7 mM KCl, 4 mM NaHCO3, 1.2 mM KH2PO4, 11 mM glucose) to a final assay concentration of 6.4 μg (OX1) or 1.4 μg (OX2) protein per well. Saturation isotherms were determined by the addition of various concentrations (0-30 nM) of [^3H]-4-(2,6-difluoro-4-methoxybenzyl)-2-(5,6-dimethoxypyridin-3-yl)-2H-1,2,4-benzothiadiazin-3(4H)-one 1,1-dioxide (Christopher et al, MedChemComm., 2015, 6, 947-955) in a total reaction volume of 250 μL for 90 min at rt. At the end of the incubation, membranes were filtered onto a 96-well GF/B filter pre-incubated with 0.5% polyethylenimine, with a Tomtec cell harvester and washed 5 times with 0.5 mL distilled water. Non-specific binding (NSB) was measured in the presence of 3.33 μM [4-(5-chloro-1,3-benzoxazol-2-yl)-7-methyl-1,4-diazepan-1-yl][5-methyl-2-(2H-1,2,3-triazol-2-yl)phenyl]methanone (Wertz et al, Angew. Chem. Int. Ed., 2011, 50, 11511-11515). Radioactivity on the filter was counted (1 min) on a Microbeta radiometric plate counter (Perkin Elmer) after addition of 50 μL of scintillation fluid (LabLogic: Part #SG-BXX-14). […] IC50 values were derived from the inhibition curve and the equilibrium dissociation constant (Ki) values were calculated using the Cheng-Prusoff equation.

Compound | Ki [nM]
Cc1ncc(C2CCc3c(F)cccc3N(Cc3c(F)cc(Br)cc3F)C2=O)cc1C(C)(F)F (single isomer, unassigned) [Example 36, 1-(4-bromo-2,6-difluorobenzyl)-3-[5-(1,1-difluoroethyl)-6-methylpyridin-3-yl]-6-fluoro-1,3,4,5-tetrahydro-2H-1-benzazepin-2-one] | 200
COc1cc(F)c(CN2C(=O)N(c3cc(S(C)(=O)=O)c(OC)nc3OC)CCc3c(F)cccc32)c(F)c1 [Example 25, 1-(2,6-difluoro-4-methoxybenzyl)-3-[2,6-dimethoxy-5-(methylsulfonyl)pyridin-3-yl]-6-fluoro-1,3,4,5-tetrahydro-2H-1,3-benzodiazepin-2-one] | > 126
COc1ncc(N2CCc3c(F)cccc3N(Cc3c(F)cc(Br)cc3F)C2=O)cc1C(C)(F)F [Example 3, 1-(4-bromo-2,6-difluorobenzyl)-3-[5-(1,1-difluoroethyl)-6-methoxypyridin-3-yl]-6-fluoro-1,3,4,5-tetrahydro-2H-1,3-benzodiazepin-2-one] | > 79.4
COc1ncc(C2CCc3c(F)cccc3N(Cc3c(F)cc(Cl)cc3F)C2=O)cc1S(C)(=O)=O (single isomer, unassigned) [Example 22, 1-(4-chloro-2,6-difluorobenzyl)-6-fluoro-3-[6-methoxy-5-(methylsulfonyl)pyridin-3-yl]-1,3,4,5-tetrahydro-2H-1-benzazepin-2-one] | > 631

Now from value to molecule:

Ki [nM] | Compound
> 316 | Cc1ccc(N2CCc3c(F)cccc3N(Cc3c(F)cc(Br)cc3F)C2=O)cc1S(C)(=O)=O [Example 27, 1-(4-bromo-2,6-difluorobenzyl)-6-fluoro-3-[4-methyl-3-(methylsulfonyl)phenyl]-1,3,4,5-tetrahydro-2H-1,3-benzodiazepin-2-one]
> 251 | COc1ncc(N2CCc3c(F)cccc3N(Cc3ccc(Br)cc3F)C2=O)cc1C(C)(F)F [Example 10, 1-(4-bromo-2-fluorobenzyl)-3-[5-(1,1-difluoroethyl)-6-methoxypyridin-3-yl]-6-fluoro-1,3,4,5-tetrahydro-2H-1,3-benzodiazepin-2-one]
> 158 | COCc1cc(F)c(CN2C(=O)N(c3cc(C(C)(F)F)c(OC)nc3OC)CCc3c(F)cccc32)c(F)c1 [Example 24, 3-[5-(1,1-difluoroethyl)-2,6-dimethoxypyridin-3-yl]-1-[2,6-difluoro-4-(methoxymethyl)benzyl]-6-fluoro-1,3,4,5-tetrahydro-2H-1,3-benzodiazepin-2-one]

— patent US20210179578A1, “OX1 ANTAGONISTS” (Heptares Therapeutics Limited, priority 2017, published 2021)
